Patent publication US8357700B2, “2,3-disubstituted piperidine orexin receptor antagonists” (Merck Sharp & Dohme Corp., priority 2008, dated 2013)

Columns and labels:
[1] = molecular target: T1, orexin-2 receptor (OX2R) (Homo sapiens, UniProt O43614); test: radioligand binding assay, membranes from CHO cells expressing OX2 receptor; conditions: CHO cell membranes
T1 construct: expressed in transfected cells; host or cells: CHO cells (membranes)
T1 sequence (O43614 1-444): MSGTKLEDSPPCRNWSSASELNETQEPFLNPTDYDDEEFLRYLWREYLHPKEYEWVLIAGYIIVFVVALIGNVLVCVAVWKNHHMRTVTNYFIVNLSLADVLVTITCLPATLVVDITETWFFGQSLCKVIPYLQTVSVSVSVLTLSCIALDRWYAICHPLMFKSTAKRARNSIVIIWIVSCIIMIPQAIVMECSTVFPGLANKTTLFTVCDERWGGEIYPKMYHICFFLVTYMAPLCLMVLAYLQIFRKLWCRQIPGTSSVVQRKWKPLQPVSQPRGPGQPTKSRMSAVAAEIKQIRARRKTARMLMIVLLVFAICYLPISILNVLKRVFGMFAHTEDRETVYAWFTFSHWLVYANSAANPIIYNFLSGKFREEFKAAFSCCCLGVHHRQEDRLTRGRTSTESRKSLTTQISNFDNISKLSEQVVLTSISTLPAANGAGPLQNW
Protocol: (§1) The utility of the compounds in accordance with the present invention as orexin receptor OX1R and/or OX2R antagonists may be readily determined without undue experimentation by methodology well known in the art, including the “FLIPR Ca^2+ Flux Assay” (Okumura et al., Biochem. Biophys. Res. Comm. 280:976-981, 2001). In a typical experiment the OX1 and OX2 receptor antagonistic activity of the compounds of the present invention was determined in accordance with the following experimental method. For intracellular calcium measurements, Chinese hamster ovary (CHO) cells expressing the rat OX1 receptor or the human OX2 receptor, are grown in Iscove's modified DMEM containing 2 mM L-glutamine, […], 1% hypoxanthine-thymidine supplement, 100 U/ml penicillin, 100 ug/ml streptomycin and 10% heat-inactivated fetal calf serum (FCS). The cells are seeded at 20,000 cells/well into Becton-Dickinson black 384-well clear bottom sterile plates coated with poly-D-lysine. All reagents were from GIBCO-Invitrogen Corp. The seeded plates are incubated overnight at 37° C. and 5% CO2. Ala-6,12 human orexin-A as the agonist is prepared as a 1 mM stock solution in 1% bovine serum albumin (BSA) and diluted in assay buffer (HBSS containing 20 mM HEPES, 0.1% BSA and 2.5 mM probenecid, pH7.4) for use in the assay at a final concentration of 70 pM. Test compounds are prepared as 10 mM stock solution in DMSO, then diluted in 384-well plates, first in DMSO, then assay buffer. On the day of the assay, cells are washed 3 times with 100 ul assay buffer and then incubated for 60 min (37° C., 5% CO2) in 60 ul assay buffer containing 1 uM Fluo-4AM ester, 0.02% pluronic acid, and 1% BSA. The dye loading solution is then aspirated and cells are washed 3 times with 100 ul assay buffer. 30 ul of that same buffer is left in each well. Within the Fluorescent Imaging Plate Reader (FLIPR, Molecular Devices), test compounds are added to the plate in a volume of 25 ul, incubated for 5 min and finally 25 ul of agonist is added. Fluorescence is measured for each well at 1 second intervals for 5 minutes and the height of each fluorescence peak is compared to the height of the fluorescence peak induced by 70 pM Ala-6,12 orexin-A with buffer in place of antagonist. For each antagonist, IC50 value (the concentration of compound needed to inhibit 50% of the agonist response) is determined. Alternatively, compound potency can be assessed by a radioligand binding assay (described in Bergman et. al. Bioorg. Med. Chem. Lett. 2008, 18, 1425-1430) in which the inhibition constant (Ki) is determined in membranes prepared from CHO cells expressing either the orexin-1 (OX1) or orexin-2 (OX2) receptor. The intrinsic orexin receptor antagonist activity of a compound which may be used in the present invention may be determined by these assays.

[2] = molecular target: T2, orexin-1 receptor (OX1R) (UniProt O43613); test: radioligand binding assay, membranes from CHO cells expressing OX1 receptor; conditions: CHO cell membranes
T2 sequence (O43613 1-425): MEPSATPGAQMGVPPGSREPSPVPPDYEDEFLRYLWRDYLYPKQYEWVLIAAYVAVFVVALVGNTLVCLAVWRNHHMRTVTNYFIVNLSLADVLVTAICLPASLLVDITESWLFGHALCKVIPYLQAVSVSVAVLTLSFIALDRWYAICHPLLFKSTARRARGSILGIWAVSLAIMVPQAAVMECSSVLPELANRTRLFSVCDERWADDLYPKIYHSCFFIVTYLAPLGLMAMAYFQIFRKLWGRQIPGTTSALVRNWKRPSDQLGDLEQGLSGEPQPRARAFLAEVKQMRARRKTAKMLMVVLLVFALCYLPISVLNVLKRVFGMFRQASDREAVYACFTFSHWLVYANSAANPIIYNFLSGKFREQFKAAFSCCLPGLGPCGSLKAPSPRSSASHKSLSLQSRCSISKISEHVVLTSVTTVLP
Protocol: as §1

Cc1ccc(-n2nccn2)c(C(=O)N2CCC[C@@H](COc3ccc(Br)cn3)[C@@H]2C)c1 (stereo in doubt) [A-7, 5-bromo-2-({2-methyl-1-[5-methyl-2-(2H-1,2,3-triazol-2-yl)benzoyl]piperidin-3-yl}methoxy)pyridine]
Ki [1]: 6.4 nM | Ki [2]: 1.1 nM

Cc1ccc(-n2nccn2)c(C(=O)N2CCC[C@@H](COc3nccc4ccccc34)[C@@H]2C)c1 (stereo in doubt) [A-8, 1-({2-methyl-1-[5-methyl-2-(2H-1,2,3-triazol-2-yl)benzoyl]piperidin-3-yl}methoxy)isoquinoline]
Ki [1]: 2.1 nM | Ki [2]: 0.5 nM

Cc1ccc(-n2nccn2)c(C(=O)N2CCC[C@@H](COc3cccc(Br)n3)[C@@H]2C)c1 (stereo in doubt) [A-9, 2-bromo-6-({2-methyl-1-[5-methyl-2-(2H-1,2,3-triazol-2-yl)benzoyl]piperidin-3-yl}methoxy)pyridine]
Ki [1]: 7.5 nM | Ki [2]: 2.7 nM

Cc1ccc(-n2nccn2)c(C(=O)N2CCC[C@@H](COc3ccnc4ccccc34)[C@@H]2C)c1 (stereo in doubt) [A-10, 4-({2-methyl-1-[5-methyl-2-(2H-1,2,3-triazol-2-yl)benzoyl]piperidin-3-yl}methoxy)quinoline]
Ki [1]: 2.6 nM | Ki [2]: 0.6 nM

Cc1ccc(-n2nccn2)c(C(=O)N2CCC[C@@H](COc3ccccn3)[C@@H]2C)c1 [A-6]
Ki [1]: 39 nM | Ki [2]: 1 nM
